The numbers were not newly measured in publication PMC12435690, “KYLO-0603, a novel liver-targeting, thyroid hormone receptor-β agonist for the inhibition of MASH progression” (PLOS One, 2025), which cites them from elsewhere.

In this series the test system is THR-β over THR-α. Details: method as in PMID 38771485, PMID 33306682, PMID 9653548, PMID 32098589. As to conditions: in vitro THR competition assays ref [28],[47],[48],[49]; cited from earlier work.

Each structure is given as a SMILES string. Several values for one entry are separate records, joined by “and”; a condition that tells them apart may be missing. Equal values may be shown once.

Regarding `CC(C)c1cc(Oc2c(Cl)cc(-n3nc(C#N)c(=O)[nH]c3=O)cc2Cl)n[nH]c1=O` [Resmetirom], the “selectivity ratio for THR-β over THR-α” value was 12 and 17.
